Measured values taken from ChEMBL document CHEMBL1157271, “Maprouneacin, a new daphnane diterpenoid with potent antihyperglycemic activity from Maprounea africana” (1999).

Assays:
Type in all cases: functional
[1] = test system: Mus musculus; assay: Antihyperglycemic activity in NIDDM db/db mouse model assessed as change in plasma glucose level at 0.5 mg/kg, qd after 27 hrs relative to pre-dosed control
[2] = test system: Mus musculus; assay: Antihyperglycemic activity in NIDDM db/db mouse model assessed as change in plasma glucose level at 0.5 mg/kg, qd after 3 hrs relative to pre-dosed control
[3] = test system: Mus musculus; assay: Antihyperglycemic activity in NIDDM db/db mouse model assessed as body weight per mouse at 0.5 mg/kg, qd after 24 hrs
[4] = test system: Mus musculus; assay: Antihyperglycemic activity in NIDDM db/db mouse model assessed as food intake per mouse at 0.5 mg/kg, qd

## CCCCC/C=C/C=C/[C@]12O[C@@H]3[C@@H]4[C@@H]5O[C@]5(CO)[C@@H](O)[C@]5(O)C(=O)C(C)=C[C@H]5[C@@]4(O1)[C@H](COC(=O)CC(C)C)[C@H](OC(=O)CC(C)C)[C@]3([C@]1(C)CO1)O2 [MAPROUNEACIN]
[1]
  Activity: -246 mg/dL
[2]
  Activity: -254 mg/dL
[3]
  Activity: 37.8 g
[4]
  Activity: 0.1 g
